In one test the test system is tumor cells (C6 glioma). Description: In vivo fluorescent imaging using C6 tumor model mice (rat glioma C6 cells transplanted subcutaneously in nude mice). Also noted: species or system mouse. Here is the method:
C6 cells were prepared according to an ordinary method so that the cell number was 2×10^7 cells/mL.
C6 cells were seeded on a 10 cm petri dish, allowed to stand still in a CO2 incubator, and cultured at 37° C. The culture medium was exchanged once every two days.
1 g/L glucose-containing Dulbecco's modified Eagle's Medium (DMEM) (Nacalai No. 08456-65), to which Fetal Bovine Serum (Equitech-Bio SFBM) was added so that the final concentration was 10% and penicillin-streptomycin (Nacalai No. 26253-84) was added so that the final concentration was 1%, was used.
5 to 6-week old athymic nude mice (BALB/cAJcl-nu/nu) were transplanted with 50 μL of a cell suspension adjusted to 2×10^7 cells/mL subcutaneously around the root of right hind paw, under isoflurane anesthesia. The transplanted tumor cells were observed until growing to about 200 to 300 mm^3, and used in vivo fluorescent imaging.
C6 tumor model mice were allowed to stand still in an in vivo fluorescence imaging apparatus IVIS (registered trademark) Kinetics (Caliper Life sciences) under isoflurane anesthesia and autofluorescence of the mouse skin was measured, and subsequently, 400 nmol (100 μL) of 2-NBDLG or 2-NBDG dissolved in physiological saline was administered from the tail vein over a period of 30 seconds, and measurement of the fluorescence imaging was started again from one minute after starting administration. The in vivo fluorescence imaging was measured at an excitation wavelength of 465 nm using a GFP filter (transmittable fluorescence wavelength: 515-575 nm). The measurement was conducted for 45 minutes, and images were taken every one minute during the initial 20 minute and every 5 minutes from 20 to 45 minutes, obtaining 25 images in total. The accumulated values (fluorescence value) of 2-NBDLG and 2-NBDG in the interested area were obtained by subtracting the autofluorescence images from the 25 images taken after administration of 2-NBDLG or 2-NBDG.
A vial of 0.5 mg of 2-NBDLG or 2-NBDG was dissolved in 400 μL of physiological saline directly before the experiment, to prepare a solution having a final concentration of 400 nmol/100 μL.

Test [1] relates to mouse insulinoma cells (MIN6). The test can be described thus: Confocal imaging of MIN6 tumor cell cluster using 2-NBDLG+2-TRLG mixture. It counts as cell-based.
Protocol: A 0.1 mg 2-TRLG vial was transferred into a desiccator and the temperature thereof was returned to room temperature. […] Specifically, 6.5 mL of the above-described 2-NBDLG solution was prepared beforehand and stirred vigorously. Then, 40 μL of DMSO was added to a 2-TRLG vial container using a RAININ chip (Mettler Toledo) in which adhesion to the tip wall is ignorable, and stirred with the vial container by a mixer to cause dissolution thereof. 2-TRLG adhered to the wall was collected to the bottom by spinning down, the whole quantity thereof was removed by [sequence] using the same chip, and dissolved in the 2-NBDLG solution being stirred. 2-TRLG slightly remaining in the 2-TRLG vial container was recovered using 25 μL of DMSO in the same manner as described above, and further dissolved in the 2-NBDLG solution. By the above-described method, a mixed solution of 100 μM 2-NBDLG+20 μM 2-TRLG (final concentration) was prepared with good reproducibility.
A 100 μM 2-NBDLG+20 μM 2-TRLG mixture was administered for 3 minutes in a condition completely covering the whole tumor cell cluster. The state of the solution covering the whole cell cluster was confirmed each time without fail by fluorescence images in the green and red wavelength ranges during administration and acquisition of a transmitted light image. By stopping application of the fluorescent glucose mixture and switching simultaneously to the solution to a no fluorescent glucose-containing HEPES solution, the background fluorescence became ignorable level in 1 minute.
By the method according to Example 3, image acquisition before administration of the mixture was started just after starting an experiment, and from then on, the fluorescence images in the blue, green and red wavelength ranges and a transmitted light image were acquired every 2 minutes until completion of the experiment. Regarding laser used, DAPI used for nuclear staining was excited by using 405 nm diode laser (AOTF 20%) and 2-NBDLG and 2-TRLG were excited by using 488 nm argon laser (output: 50%, AOTF 28%). The scan speed was 400 Hz.
For fluorescence detection, three fluorescence detectors were used as described below. For detection of blue fluorescence by DAPI, a photomultiplier detector (PMT)1 was used in the wavelength detection range of 415 to 500 nm (detection sensitivity: 750 V), for detection of green fluorescence by 2-NBDLG, PMT2 was used in the wavelength detection range of 500 to 580 nm (detection sensitivity: 670 V), and for detection of red fluorescence, PMT3 was used in the wavelength detection range of 580 to 740 nm (detection sensitivity: 670 V). Here, most of the fluorescence of 2-TRLG is present in the wavelength longer than 580 nm and only a small fluorescent component is present in the wavelength less than 580 nm, thus, the fluorescence intensity in the range of 500 to 580 nm of PMT2 is barely influenced by 2-TRLG. Therefore, when the amount of detection of 2-TRLG in cells increases, its effect emerges mainly as an increase in the fluorescence intensity in the range of 580 to 740 nm of PMT3. On the other hand, although 2-NBDLG has the maximal fluorescence intensity around 540 to 550 nm, it has fluorescence in the range of 580 to 740 nm as well. Therefore, when the amount of detection of 2-NBDLG within the cell increases, the fluorescence intensity in the range of 580 to 740 nm detected by PMT3 also increases in addition to an increase in the fluorescence intensity in the range of 500 to 580 nm detected by PMT2. […]
Test [2] concerns mouse insulinoma cells (MIN6). The test can be described thus: Uptake into MIN6 cells with or without inhibitors, fluorescence microplate reader (Flex Station). It is filed as cell-based. The note with it: 200 μM, 5 minutes. As for the experimental part: A difference in the uptake of 2-NBDLG (200 μM) and 2-NBDG (200 μM) into mouse insulinoma cells (MIN6) each applied for 5 minutes was analyzed quantitatively by a fluorescence microplate reader Flex Station (manufactured by Molecular Devices Corporation) in the condition whether or not various inhibitors are present. The well used for measurement was a 96-well clear bottomed well plate μ CLEAR-PLATE (Greiner bio-one, BLACK, 96 well, #655090) having longitudinally […] to 12 twelve columns, and MIN6 cell suspension prepared at a proportion of 6×10^5 cells/mL was seeded uniformly into wells from line B to line G at the third column and the fifth column each in an amount of 15 μL. For medium exchange, the half quantity was exchanged every two days in 0 to 4 DIV (days in vitro), and from 5 DIV or later, exchanged every day, and on days 10 to 13 (10 to 13 DIV), the cells were subjected to an experiment. Line A and line H were used as a control for checking correct washout, without seeding cells. In the fourth column, cells were not present, and wells in this column were used as a blank containing only Krebs Ringer buffer solution (KRB, containing 0.1 mM gap junction inhibitor carbenoxolone and 5.6 mM glucose). Evaluation was done in a way that 2-NBDLG or 2-NBDG was charged in each tube of a 8-strip PCR tube, and sucked using a 8-channel pipette and dropped simultaneously into wells. In this way, administration to wells for 2-NBDLG and to wells for 2-NBDG can be done simultaneously, making reliable evaluation possible. As described above, cells are present in 12 wells in the third and the fifth two columns, and these were divide into 4 groups each having 3 wells according to a difference either 2-NBDLG or 2-NBDG and whether an inhibitor is present or absent. Specifically, when checking the effect by the presence or absence of a GLUT inhibitor Cytochalasin B (10 μM) on the uptake of 2-NBDLG (200 μM) and 2-NBDG (200 μM), first, in wells, which are planned to be measured in the presence of Cytochalasin B, Cytochalasin B was added 5 minutes prior to the administration of the fluorescently labeled glucose derivative. Before administration of a fluorescently labeled glucose derivative, the autofluorescence was measured in each well. The measurement was done with Flex Station in Well Scan Mode and in the Bottom Read position at Ex 470 nm, Em 540 nm, Cut off 495 nm, Averaging 3, and Photomultiplier sensitivity: high. In Well Scan Mode of the fluorescence microplate reader Flex Station, one well was divided into nine observation areas and these are measured independently. The presence of approximately 5000 cells in each of 9-divided areas was separately confirmed by Z section measurement of a realtime deconvolution microscope. 2-NBDG and 2-NBDLG were administered with or without Cytochalasin B (37° C., 5 minutes), and after cessation of administration, an operation of adding 250 μL of a KRB solution containing no fluorescently labeled glucose into 50 μL of a solution in a well was repeated 7 times while measuring with a stopwatch, thereby performing washout until the fluorescence intensities of wells in line A and line H set as a control group became equal to the fluorescence intensity of the blank well containing no cell. This process required 7 minutes, and even if cells having broken plasma membrane condition are brought into contact with 2-NBDG and 2-NBDLG, and even if these compounds are once taken up into the cell, these compounds are already eliminated out of the cell and are washed away in measurement, therefore, contribution to an increase in the fluorescence intensity in the whole observation area was judged to be in an ignorable level. This was supported by a separate pharmacological inhibition experiment in which the increase in the fluorescence intensity nearly disappears in the presence of an inhibitor. The above-described method was carried out similarly in the case of other inhibitors. […]

Setting [3] is: 100 μM 2-NBDLG+20 μM 2-TRLG mixture for 3 minutes.

Entries after “also recorded” stand apart in the source; their conditions may differ.

For `O=[N+]([O-])c1ccc(NC2C(O)OC(CO)[C@H](O)C2O)c2nonc12` (stereo partly drawn) [2-NBDLG, 2-[N-(7-Nitrobenz-2-oxa-1,3-diazol-4-yl)amino]-2-deoxy-L-glucose], the “fluorescence values at tumor-transplanted part (Tumor) versus normal tissue (BG), FIG. 3” value in the test with tumor cells (C6 glioma) (400 nmol i.v., temporal change over 45 minutes, same result in 6 examples) was “fluorescence values at the tumor-transplanted part (blue rhombus, Tumor) are consistently larger than at normal tissue”. For the same compound, in the test with tumor cells (C6 glioma) (400 nmol/100 μL from the tail vein), the “time from which accumulations at the tumor cell-transplanted part were recognized” value was “around 5 minutes after administration”. Besides, the “accumulation at the tumor-transplanted part” value in the test with tumor cells (C6 glioma) (400 nmol/100 μL from the tail vein over 30 seconds, non-fasted nude mice, fluorescence images every one minute) was “intense accumulations”. The “contrast between tumor-transplanted part and normal tissue (adipocyte-rich dorsal part near neck)” value with tumor cells (C6 glioma) (400 nmol/100 μL from the tail vein, non-fasted mice) is on record as “excellent contrast; also recorded: high contrast”. Moreover, the “uptake/accumulation in normal tissue” value in the test on tumor cells (C6 glioma) (400 nmol/100 μL from the tail vein, normal tissue (fat tissue on the back, between back bones, muscle)) is “scarcely taken up”. Further, in test [1] (setting [3]), the “fluorescence at the central region of the cell cluster, 4 minutes after cessation of administration” value is recorded as “weaken to a considerable extent” and the “uptake into cells just outside of the central region of the cell cluster” value is recorded as “taking up almost no”. The “uptake at the central region of the cell cluster, 2 minutes after cessation of administration” value in test [1] (100 μM 2-NBDLG+20 μM 2-TRLG mixture for 3 minutes, green channel (2-NBDLG), red channel (2-TRLG)) is “Intense uptake”. Also, the “time of elimination from spherical cells on the outermost periphery of the cell cluster” value in test [1] (100 μM 2-NBDLG+20 μM 2-TRLG mixture, after cessation of administration) is at most 2 min. In test [1] (100 μM 2-NBDLG+20 μM 2-TRLG mixture, between 2 and 4 minutes after cessation), the “time of elimination from cells at the central region of the tumor cell cluster” value is at most 2 min. The “effect of GLUT inhibitor Cytochalasin B on uptake into MIN6 cells” value in test [2] (37° C., Cytochalasin B (10 µM, CB)) is recorded as “did not show a significant decrease (N.S.)”. For the same compound, in test [2] (37° C., Na(−) buffer, choline substituted), the “uptake into MIN6 cells in buffer containing Na+ versus no Na+ ion (SGLT)” value was “no significant difference”. For the same compound, in test [2] (Phloretin (150 μM, PHT)), the “effect of Phloretin on uptake into MIN6 cells” value is on record as “underwent inhibition of the uptake”.

(Values after patent publication US20140154717A1, “METHOD FOR DETECTING CANCER CELL USING FLUORESCENTLY LABELED L-GLUCOSE DERIVATIVE, AND CANCER CELL-IMAGING AGENT COMPRISING FLUORESCENTLY LABELED L-GLUCOSE DERIVATIVE” (priority 2011, published 2014).)
